Reference: PubChem BioAssay (NCI)
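How tested: cells in 96-well plates exposed to compound for 48 hours at five concentrations. TGI is the concentration that stops growth completely.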

What was measured:
Experiment in all cases: NCI anticancer screen, dose series, 48 h
NCI-H522 lung = tested on: NCI-H522 lung
XF 498 CNS = tested on: XF 498 CNS
KM20L2 colon = tested on: KM20L2 colon
LXFL 529 NSCLC = tested on: LXFL 529 NSCLC
M14 melanoma = tested on: M14 melanoma
DMS 273 small cell lung = tested on: DMS 273 small cell lung
DMS 114 small cell lung = tested on: DMS 114 small cell lung
HOP-62 NSCLC = tested on: HOP-62 NSCLC
RXF-631 renal = tested on: RXF-631 renal
DLD-1 colon = tested on: DLD-1 colon
SNB-78 CNS = tested on: SNB-78 CNS
SNB-75 CNS = tested on: SNB-75 CNS
M19-MEL melanoma = tested on: M19-MEL melanoma
HOP-18 NSCLC = tested on: HOP-18 NSCLC
DU-145 prostate = tested on: DU-145 prostate

## C=CCCN1CCc2c([nH]c3ccccc23)C1C(=O)O (configuration not stated)
NCI-H522 lung
  TGI: > 100 µM
XF 498 CNS
  TGI: > 100 µM
KM20L2 colon
  TGI: > 100 µM
LXFL 529 NSCLC
  TGI: > 100 µM
M14 melanoma
  TGI: > 100 µM
DMS 273 small cell lung
  TGI: > 100 µM
DMS 114 small cell lung
  TGI: > 100 µM
HOP-62 NSCLC
  TGI: > 100 µM
RXF-631 renal
  TGI: > 100 µM
DLD-1 colon
  TGI: > 100 µM
SNB-78 CNS
  TGI: > 100 µM
SNB-75 CNS
  TGI: > 100 µM
M19-MEL melanoma
  TGI: > 100 µM

## O=P(Nc1ccc(Cl)cc1)(Oc1ccccc1)N(CCCl)CCCl (configuration not stated)
NCI-H522 lung
  TGI: > 100 µM
KM20L2 colon
  TGI: > 100 µM
LXFL 529 NSCLC
  TGI: > 100 µM
M14 melanoma
  TGI: > 100 µM
DMS 273 small cell lung
  TGI: > 100 µM
DMS 114 small cell lung
  TGI: > 100 µM
HOP-62 NSCLC
  TGI: > 100 µM
RXF-631 renal
  TGI: > 100 µM
HOP-18 NSCLC
  TGI: > 100 µM
DLD-1 colon
  TGI: > 100 µM
SNB-78 CNS
  TGI: > 100 µM
SNB-75 CNS
  TGI: > 100 µM
M19-MEL melanoma
  TGI: > 100 µM

## N#CC(NC12CC3CC(CC(C3)C1)C2)c1ccccc1C(F)(F)F (configuration not stated)
NCI-H522 lung
  TGI: > 100 µM
XF 498 CNS
  TGI: > 100 µM
KM20L2 colon
  TGI: > 100 µM
LXFL 529 NSCLC
  TGI: > 100 µM
M14 melanoma
  TGI: > 100 µM
DMS 273 small cell lung
  TGI: > 100 µM
DMS 114 small cell lung
  TGI: > 100 µM
HOP-62 NSCLC
  TGI: > 100 µM
HOP-18 NSCLC
  TGI: > 100 µM
DLD-1 colon
  TGI: > 100 µM
M19-MEL melanoma
  TGI: > 100 µM

## NC(N)=N/N=C/c1c[nH]c2ccccc12
NCI-H522 lung
  TGI: > 100 µM
KM20L2 colon
  TGI: > 100 µM
LXFL 529 NSCLC
  TGI: > 100 µM
M14 melanoma
  TGI: > 100 µM
DMS 273 small cell lung
  TGI: > 100 µM
DMS 114 small cell lung
  TGI: > 100 µM
HOP-62 NSCLC
  TGI: > 100 µM
HOP-18 NSCLC
  TGI: > 100 µM
DLD-1 colon
  TGI: > 100 µM
SNB-78 CNS
  TGI: > 100 µM
SNB-75 CNS
  TGI: > 100 µM

## CC1NC(=O)CC(c2ccccc2)N(N=O)C1c1ccccc1 (configuration not stated)
NCI-H522 lung
  TGI: 49.7 µM
XF 498 CNS
  TGI: 75.3 µM
KM20L2 colon
  TGI: 40 µM
DMS 273 small cell lung
  TGI: > 75.1 µM
HOP-62 NSCLC
  TGI: > 92.7 µM
HOP-18 NSCLC
  TGI: > 100 µM
DLD-1 colon
  TGI: > 100 µM
SNB-78 CNS
  TGI: > 91.8 µM
SNB-75 CNS
  TGI: > 65.2 µM
M19-MEL melanoma
  TGI: > 100 µM

## CCOCc1nc2c(OC)cc(-c3nc4ccc(N5CCN(C)CC5)cc4[nH]3)c(OC)c2[nH]1
NCI-H522 lung
  TGI: 58.2 µM
M14 melanoma
  TGI: 35.3 µM
DU-145 prostate
  TGI: > 100 µM
HOP-62 NSCLC
  TGI: 62.8 µM
SNB-75 CNS
  TGI: 87.1 µM

## O=C1CCC(c2ccc(Cl)cc2)=NN1c1nsc2ccccc12
KM20L2 colon
  TGI: > 100 µM
LXFL 529 NSCLC
  TGI: 81.4 µM
DMS 273 small cell lung
  TGI: 74.5 µM
DMS 114 small cell lung
  TGI: 87.9 µM
HOP-62 NSCLC
  TGI: > 100 µM
HOP-18 NSCLC
  TGI: > 100 µM
SNB-78 CNS
  TGI: 78.7 µM
SNB-75 CNS
  TGI: 56 µM
M19-MEL melanoma
  TGI: > 100 µM

## Cc1ccc(N=Nc2c(O)ccc3cc(S(=O)(=O)O)cc(S(=O)(=O)O)c23)cc1
NCI-H522 lung
  TGI: > 100 µM
M14 melanoma
  TGI: > 100 µM
DU-145 prostate
  TGI: > 100 µM
HOP-62 NSCLC
  TGI: > 100 µM
SNB-75 CNS
  TGI: > 100 µM

## Cc1ccc2c(c1)C(C(=O)N[C@@H]1C(=O)N3[C@@H]1SC(C)(C)[C@@H]3C(=O)O)OCCC2 (some centres not stated)
NCI-H522 lung
  TGI: > 100 µM
M14 melanoma
  TGI: > 100 µM
DU-145 prostate
  TGI: > 100 µM
HOP-62 NSCLC
  TGI: > 100 µM
SNB-75 CNS
  TGI: > 100 µM

## O=C1/C(=N/O)Cc2c(Br)ccc(Br)c21
NCI-H522 lung
  TGI: 91.3 µM
M14 melanoma
  TGI: > 100 µM
DU-145 prostate
  TGI: > 100 µM
HOP-62 NSCLC
  TGI: > 100 µM
SNB-75 CNS
  TGI: > 100 µM

## C[C@]12CCC(=O)O[C@H]1CCCCO2
NCI-H522 lung
  TGI: > 100 µM
M14 melanoma
  TGI: > 100 µM
DU-145 prostate
  TGI: > 100 µM
HOP-62 NSCLC
  TGI: > 100 µM
SNB-75 CNS
  TGI: > 100 µM

## CCCCN1C(=O)N(c2ccc(OCC)cc2)C2N(CCCC)C1C(C)(C)C2(C)C (configuration not stated)
NCI-H522 lung
  TGI: > 100 µM
M14 melanoma
  TGI: > 100 µM
DU-145 prostate
  TGI: > 100 µM
HOP-62 NSCLC
  TGI: > 100 µM
SNB-75 CNS
  TGI: > 100 µM

## CCN(CC)C(=S)N/N=C(/C)c1cccc(/C(C)=N\NC(=S)N(CC)CC)n1
NCI-H522 lung
  TGI: 16 µM
M14 melanoma
  TGI: 3.63 µM
DU-145 prostate
  TGI: 4.83 µM
HOP-62 NSCLC
  TGI: 6.76 µM
SNB-75 CNS
  TGI: 10.2 µM
